In PubChem BioAssay (NCI):
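Five compound concentrations were applied to cells in 96-well plates for 48 hours; endpoints were derived by simple linear interpolation of the resulting dose-response curve. At the TGI there is no net growth.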

Assays:
Experiment in all cases: inhibition of tumour cell growth, NCI panel, 48 h
SK-OV-3 ovarian = test system: SK-OV-3 ovarian
SR leukemia = test system: SR leukemia
ACHN renal = test system: ACHN renal
LXFL 529 NSCLC = test system: LXFL 529 NSCLC
RXF-631 renal = test system: RXF-631 renal
786-0 renal = test system: 786-0 renal
A498 renal = test system: A498 renal
SF-295 CNS = test system: SF-295 CNS
SF-539 CNS = test system: SF-539 CNS
LOX IMVI melanoma = test system: LOX IMVI melanoma
UO-31 renal = test system: UO-31 renal
M19-MEL melanoma = test system: M19-MEL melanoma
SNB-75 CNS = test system: SNB-75 CNS
A549 NSCLC = test system: A549 NSCLC
SN12C renal = test system: SN12C renal
HCT-116 colon = test system: HCT-116 colon
UACC-62 melanoma = test system: UACC-62 melanoma
OVCAR-3 ovarian = test system: OVCAR-3 ovarian
SK-MEL-5 melanoma = test system: SK-MEL-5 melanoma
K-562 leukemia = test system: K-562 leukemia
SK-MEL-2 melanoma = test system: SK-MEL-2 melanoma
HOP-18 NSCLC = test system: HOP-18 NSCLC
HCC-2998 colon = test system: HCC-2998 colon
OVCAR-4 ovarian = test system: OVCAR-4 ovarian
DMS 114 small cell lung = test system: DMS 114 small cell lung
SNB-19 CNS = test system: SNB-19 CNS
SK-MEL-28 melanoma = test system: SK-MEL-28 melanoma
KM12 colon = test system: KM12 colon
TK-10 renal = test system: TK-10 renal
HL-60(TB) leukemia = test system: HL-60(TB) leukemia
RPMI-8226 leukemia = test system: RPMI-8226 leukemia
HCT-15 colon = test system: HCT-15 colon
DMS 273 small cell lung = test system: DMS 273 small cell lung
M14 melanoma = test system: M14 melanoma
U251 CNS = test system: U251 CNS
HOP-62 NSCLC = test system: HOP-62 NSCLC
SF-268 CNS = test system: SF-268 CNS
HT29 colon = test system: HT29 colon
COLO 205 colon = test system: COLO 205 colon
OVCAR-8 ovarian = test system: OVCAR-8 ovarian
SNB-78 CNS = test system: SNB-78 CNS
SW-620 colon = test system: SW-620 colon
EKVX NSCLC = test system: EKVX NSCLC
NCI-H23 lung = test system: NCI-H23 lung
HOP-92 NSCLC = test system: HOP-92 NSCLC
MOLT-4 leukemia = test system: MOLT-4 leukemia
RXF 393 renal = test system: RXF 393 renal
MALME-3M melanoma = test system: MALME-3M melanoma
DLD-1 colon = test system: DLD-1 colon
XF 498 CNS = test system: XF 498 CNS
KM20L2 colon = test system: KM20L2 colon
UACC-257 melanoma = test system: UACC-257 melanoma
IGROV1 ovarian = test system: IGROV1 ovarian
OVCAR-5 ovarian = test system: OVCAR-5 ovarian
NCI-H460 lung = test system: NCI-H460 lung
CCRF-CEM leukemia = test system: CCRF-CEM leukemia
CAKI-1 renal = test system: CAKI-1 renal
NCI-H522 lung = test system: NCI-H522 lung
NCI-H226 lung = test system: NCI-H226 lung

Measured: TGI

N#CC1(Cc2ccccc2)CCCCN1C(=O)c1ccccc1 (stereo not given)
9.11 µM: SK-MEL-2 melanoma
not listed: CAKI-1 renal | NCI-H522 lung | NCI-H226 lung
> 100 µM: all other assays above

CCOC(=O)C1C(=O)CN2CCc3c([nH]c4ccccc34)C12C(=O)OCC (stereo not given)
not listed: RPMI-8226 leukemia
> 100 µM: all other assays above

CCCCCCCCCCCCCCCCCC(=O)NCC(COP(=O)([O-])OCC[N+](C)(C)C)OC (stereo not given)
26.8 µM: RXF-631 renal
3.02 µM: TK-10 renal
2.09 µM: KM12 colon
6.28 µM: M19-MEL melanoma
22.4 µM: A549 NSCLC
30.2 µM: UACC-257 melanoma
30.6 µM: SK-MEL-28 melanoma
20.9 µM: MALME-3M melanoma
22.7 µM: ACHN renal | DMS 114 small cell lung
12.9 µM: HT29 colon
5.89 µM: HCT-15 colon
2.1 µM: RXF 393 renal
4.72 µM: IGROV1 ovarian
25.5 µM: M14 melanoma
3.07 µM: 786-0 renal
22.9 µM: SW-620 colon
31.1 µM: EKVX NSCLC
15.8 µM: SNB-75 CNS
23.6 µM: OVCAR-8 ovarian
2.31 µM: HCC-2998 colon
14.4 µM: OVCAR-5 ovarian
8.14 µM: CAKI-1 renal
17.5 µM: SF-268 CNS
8.17 µM: HOP-92 NSCLC | DLD-1 colon
8.58 µM: XF 498 CNS
8.21 µM: HOP-62 NSCLC
31.8 µM: SF-539 CNS
18.5 µM: HCT-116 colon
6.92 µM: HOP-18 NSCLC
30.7 µM: UO-31 renal
10.3 µM: A498 renal
29.5 µM: SK-MEL-5 melanoma
28.7 µM: SK-OV-3 ovarian | NCI-H23 lung
2.9 µM: HL-60(TB) leukemia
8.69 µM: NCI-H226 lung
13 µM: SF-295 CNS | OVCAR-4 ovarian
2.59 µM: NCI-H460 lung
3.48 µM: SNB-19 CNS
16.9 µM: UACC-62 melanoma
4.04 µM: U251 CNS
10.2 µM: OVCAR-3 ovarian
7.36 µM: SR leukemia
2.93 µM: DMS 273 small cell lung
19.7 µM: LXFL 529 NSCLC
13.6 µM: SNB-78 CNS
3.56 µM: MOLT-4 leukemia
23.3 µM: LOX IMVI melanoma
5.66 µM: CCRF-CEM leukemia
5.5 µM: KM20L2 colon
4.67 µM: RPMI-8226 leukemia
3.24 µM: COLO 205 colon
15.3 µM: SN12C renal
